From US11339185B2, “Cyclic dinucleotides as anticancer agents” (Bristol-Myers Squibb Company, priority 2018, dated 2022) come the findings set out here.

For experiment [1], the system named is THP1-Dual cells, IRF pathway (IRF3). The experiment is described as follows: STING THP1 Reporter Assay, IRF pathway (secreted Lucia luciferase, QUANTI-Luc). Format: cell-based. The following applies: 10% human plasma, luciferase readout, 100% activation = 100 μM cGAMP, read-out: THP1 Reporter Assays EC50 (μM) IRF3. An excerpt: (§1) THP1-Dual™ cells were derived from the human THP-1 monocyte cell line by stable integration of two inducible reporter constructs. To this end, THP1-Dual™ cells allow the simultaneous study of the NF-κB pathway, by monitoring the activity of SEAP, and the IRF pathway by assessing the activity of a secreted luciferase (Lucia). Both reporter proteins are readily measurable in the cell culture supernatant when using QUANTI-Blue™, a SEAP detection reagent, and QUANTI-Luc™, a luciferase detection reagent.
(§2) THP1-Dual™ cells induce the activation of NF-κB in response to STING agonists. They also trigger the IRF pathway upon stimulation with STING agonists, such as cGAMP. Here, the THP-1-Dual cells were used to assess STING binders for function on the cellular level.
(§3) Serial dilutions of compounds in DMSO were added to low volume 384 well plates at 100 nl/well using an ECHO acoustic dispenser (Labcyte, model 550) to achieve final starting concentration of 100 μM in cell suspension. THP-1 Dual™ STING reporter cells (Invivogen, Dual cells cat #THPD-nfis) were added to the plates with compounds at 15,000 cells in 10 μL per well in RPMI media (Gibco, cat #11875) containing 10% human plasma in a low volume 384-well black wall clear bottom tissue culture plate (Corning, cat #3542) for SEAP assay and low volume solid white plate (Corning, cat #3826) for luciferase assay. One column of the plate was reserved for treatment with cGAMP at 100 μM for 100% activation calculation and one column for no treatment (DMSO only) for baseline activation. Plates were then incubated in 37 OC incubator at 5% CO2 for 20 hours.
(§4) In the SEAP assay, 5 μl of 2× QuantiBlue (Invivogen, cat #Rep-qb2) is added to 384 well black plates seeded with THP1 cells and incubated at 37° C. for 2 hours. Plates were read on the Envision (Perkin Elmer) at 620 nm wavelength (OD620). In the luciferase assay, 5 μl of Quantiluc (Invivogen, Rep-qlc2) is added to white 384 well plates seeded with THP1 cells and read at 5 minutes on the Envision (Perkin Elmer) using a luminescence protocol (RLU). For both cell lines, 100% activation was determined by value (RLU) of THP-1 Dual STING cells stimulated with 100 μM cGAMP (Invivogen, cat #TLRL-NACGA23-5).

In experiment [2] the test system is THP1-Dual cells, NF-κB pathway. The experiment in a line: STING THP1 Reporter Assay, NF-κB pathway (SEAP, QUANTI-Blue). Format: cell-based. Conditions: 10% human plasma, SEAP readout (OD620), 100% activation = 100 μM cGAMP, read-out: THP1 Reporter Assays EC50 (μM) NFkB.
Text: as §1, §2, §3, §4
On the technique in general: Reporter assays use an easily measured gene product as a stand-in for the process of interest.

Experiment [3] addresses T1, STING WT: His-TVMV-S-hSTING(155-341)-H232R (Homo sapiens, UniProt Q86WV6, H232R).
T1 construct: STING WT: His-TVMV-S-hSTING(155-341)-H232R
The experiment is described as follows: STING HTRF binding assay (time resolved FRET competition), STING WT. Conditions: 20 nM His-tagged STING WT cytoplasmic domain, 200 nM fluorescein-labeled cGAMP analog probe, one hour; read-out: HTRF Binding Assays IC50 (μM) WT. How it is done: (§5) A time resolved FRET-based competition binding assay was used to assess test article binding to STING WT and STING AQ. His-tagged STING cytoplasmic domain (WT or AQ) at a concentration of 20 nM was incubated with 2.5 nM Tb-labeled anti-His antibody, test compound, and fluorescein-labeled cGAMP analog probe (BioLog cat. no. C195) at a concentration of 200 nM (STING WT) or 40 nM (STING AQ) in PBS containing 0.005% Tween-20 and 0.1% BSA for one hour. Fluorescence at 495 nm and 520 nm was measured using an EnVision microplate reader to quantify FRET between Tb-labeled anti-His antibody and fluorescein-labeled probe. Background was defined as the signal obtained in the absence of STING protein, and background subtracted FRET ratios were normalized to the maximum signal obtained in the absence of test compound. These values were converted to a percent inhibition. Percent inhibition was determined for test compounds at 11 concentrations. The IC50, defined as the concentration of competing test compound needed to reduce specific binding of the probe by 50%, was calculated using the 4 parameter logistic equation to fit the data

In experiment [4] the target is T2, STING AQ: His-TVMV-S-hSTING(155-341)-G230A-R293Q (Homo sapiens, UniProt Q86WV6, G230A/H232R/R293Q).
T2 construct: STING AQ: His-TVMV-S-hSTING(155-341)-G230A-R293Q
The experiment in a line: STING HTRF binding assay (time resolved FRET competition), STING AQ. Conditions: 20 nM His-tagged STING AQ cytoplasmic domain, 40 nM fluorescein-labeled cGAMP analog probe, one hour; read-out: HTRF Binding Assays IC50 (μM) AQ. On the procedure:
as §5
A general note: In TR-FRET formats the signal depends on donor and acceptor labels being close together.

Read-outs that look alike come from different tables or passages of the source.

T1 sequence (Q86WV6 with tags, fused parts or gaps H232R): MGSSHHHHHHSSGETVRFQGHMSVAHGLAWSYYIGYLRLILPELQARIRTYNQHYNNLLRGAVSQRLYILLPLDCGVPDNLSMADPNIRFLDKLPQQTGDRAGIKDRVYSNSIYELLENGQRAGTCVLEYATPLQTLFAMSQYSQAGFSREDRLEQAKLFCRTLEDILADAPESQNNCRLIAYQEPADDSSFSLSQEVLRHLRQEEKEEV
T2 sequence (Q86WV6 with tags, fused parts or gaps G230A/H232R/R293Q): as the sequence (Q86WV6 with tags, fused parts or gaps H232R) above, with G99A, R162Q counted along it

The term EC50 denotes the concentration that produces a half-maximal response. What is called IC50 is the concentration that gives 50% inhibition. In the case of `Nc1ncnc2c1ncn2[C@@H]1C[C@@H]2COP(=O)(S)O[C@@H]3[C@H](F)[C@@H](COP(=O)(S)OC[C@H]21)O[C@H]3n1cnc2c(=O)n3cc[nH]c3nc21` (single isomer, unassigned) [Example 6-4], the EC50 in experiment [1] (20 hours) and in experiment [2] (20 hours) was greater than 100 µM each time. The results for the IC50 in experiment [3] and in experiment [4] were 19.4 µM and 0.63 µM, respectively.
On to `Nc1ncnc2c1ncn2[C@@H]1C[C@@H]2COP(=O)(S)O[C@H]3[C@@H](O)[C@H](n4cnc5c(=O)n6cc[nH]c6nc54)O[C@@H]3COP(=O)(S)OC[C@H]21` (single isomer, unassigned) [Example 5-2], for which the EC50 in experiment [1] (20 hours) and in experiment [2] (20 hours) was greater than 100 µM throughout. The half-maximal inhibitory concentration (IC50) in experiment [3] was greater than 100 µM; in experiment [4], 11.8 µM.
As to `Nc1ncnc2c1ncn2[C@@H]1O[C@@H]2COP(=O)(S)OC[C@@H]3[C@@H](COP(=O)(S)O[C@H]2[C@H]1F)C[C@H]3n1cnc2c(O)n3ccnc3nc21` (single isomer, unassigned) [Example 1-1], the EC50 in experiment [1] (20 hours) turned out to be 41 µM; in experiment [2] (20 hours), 54.6 µM. Also, the IC50 is 0.19 µM in experiment [3] and 0.01 µM in experiment [4].
Regarding `NC(=O)c1cc([C@@H]2C[C@@H]3COP(=O)(O)O[C@H]4[C@@H](F)[C@H](n5cnc6c(N)ncnc65)O[C@@H]4COP(=O)(O)OC[C@H]32)ccn1` [Example 12, 4-[(1R,6S,8R,9S,15R,17R,18R)-17-(6-amino-9H-purin-9-yl)-18-fluoro-3,12-dihydroxy-3,12-dioxo-2,4,11,13,16-pentaoxa-3λ^5,12λ^5-diphosphatricyclo[13.3.0.0^6,9]octadecan-8-yl]pyridine-2-carboxamide], the EC50 is greater than 100 µM in experiment [1] (Homo sapiens, THP1-Dual, 20 h) and greater than 100 µM in experiment [2] (Homo sapiens, THP1-Dual, 20 h). Moreover, the IC50 in experiment [3] is 31.2 µM; in experiment [4] it was 0.35 µM.
For `NC(=O)c1cc([C@@H]2C[C@@H]3COP(=O)(S)O[C@H]4[C@@H](F)[C@H](n5cnc6c5ncn5ccnc65)O[C@@H]4COP(=O)(S)OC[C@H]32)ccn1` (stereo partly drawn) [Example 19, 4-[(1R,6S,8R,9S,15R,17R,18R)-18-fluoro-17-{3H-imidazo[2,1-f]purin-3-yl}-3,12-dioxo-3,12-disulfanyl-2,4,11,13,16-pentaoxa-3λ^5,12λ^5-diphosphatricyclo[13.3.0.0^6,9]octa-decan-8-yl]pyridine-2-carboxamide], the EC50 in experiment [1] (Homo sapiens, THP1-Dual, 20 h) amounted to 0.97 µM; in experiment [2] (Homo sapiens, THP1-Dual, 20 h), 2.38 µM. Further, the IC50 in experiment [3] and in experiment [4] was 0.01 µM throughout.
On to `Nc1ncnc2c1ncn2[C@@H]1C[C@@H]2COP(=O)(S)O[C@@H]3[C@H](F)[C@@H](COP(=O)(S)OC[C@H]21)O[C@H]3n1cnc2c1ncn1ccnc21` (single isomer, unassigned) [Example 8-2], for which the EC50 in experiment [1] (20 hours) and in experiment [2] (20 hours) was greater than 100 µM each time. Besides, the IC50 in experiment [3] stood at 3.43 µM; in experiment [4], 0.51 µM.
As for `NC(=O)c1cc([C@@H]2C[C@@H]3COP(=O)(S)O[C@H]4[C@H](F)[C@H](n5cnc6c(N)ncnc65)O[C@@H]4COP(=O)(S)OC[C@H]32)ccn1` (single isomer, unassigned) [Example 11], the EC50 in experiment [1] (Homo sapiens, THP1-Dual, 20 h) was greater than 100 µM; in experiment [2] (Homo sapiens, THP1-Dual, 20 h), greater than 100 µM. The IC50 in experiment [3] was 52.5 µM; in experiment [4] it was 10.1 µM.
Consider `NC(=O)c1cc([C@@H]2C[C@@H]3COP(=O)(S)O[C@H]4[C@@H](F)[C@H](n5cnc6c(N)ncnc65)O[C@@H]4COP(=O)(O)OC[C@H]32)ccn1` (single isomer, unassigned) [Example 13], for which the EC50 in experiment [1] (Homo sapiens, THP1-Dual, 20 h) is 54.6 µM; in experiment [2] (Homo sapiens, THP1-Dual, 20 h), 90 µM. The IC50 in experiment [3] amounted to 4.78 µM; in experiment [4] it was 0.1 µM.
Regarding `Nc1ncnc2c1ncn2[C@@H]1C[C@@H]2COP(=O)(S)O[C@H]3[C@@H](O)[C@H](n4cnc5c(=O)n6cc[nH]c6nc54)O[C@@H]3COP(=O)(S)OC[C@H]21` (single isomer, unassigned) [Example 5-3], the concentration giving a half-maximal response (EC50) in experiment [1] (20 hours) and in experiment [2] (20 hours) was greater than 100 µM throughout. In addition, the results for the IC50 in experiment [3] and in experiment [4] were greater than 100 µM and 5.73 µM, respectively.
With `Nc1ncnc2c1ncn2[C@@H]1O[C@@H]2COP(=O)(S)OC[C@@H]3[C@@H](COP(=O)(S)O[C@H]2[C@H]1F)C[C@H]3n1cnc2c(O)n3ccnc3nc21` (single isomer, unassigned) [Example 1-2], the values for the EC50 in experiment [1] (20 hours) and in experiment [2] (20 hours) were 31.3 µM and 54 µM, respectively. Also, the concentration for half-maximal inhibition (IC50) in experiment [3] worked out at 0.9 µM; in experiment [4] it was 0.04 µM.
On to `Nc1ncnc2c1ncn2[C@@H]1C[C@@H]2COP(=O)(S)O[C@H]3[C@@H](F)[C@H](n4cnc5c4ncn4ccnc54)O[C@@H]3COP(=O)(S)OC[C@H]21` (single isomer, unassigned) [Example 17-1], for which the EC50 in experiment [1] (Homo sapiens, THP1-Dual, 20 h) is greater than 100 µM; in experiment [2] (Homo sapiens, THP1-Dual, 20 h), greater than 100 µM. Besides, the IC50 was greater than 100 µM in experiment [3] and 3.55 µM in experiment [4].
Regarding `NC(=O)c1cc([C@@H]2C[C@@H]3COP(O)(=S)O[C@H]4[C@@H](F)[C@H](n5cnc6c(N)ncnc65)O[C@@H]4COP(=O)(O)OCC32)ccn1` (single isomer, unassigned) [Example 14], the EC50 was greater than 100 µM in experiment [1] (Homo sapiens, THP1-Dual, 20 h) and greater than 100 µM in experiment [2] (Homo sapiens, THP1-Dual, 20 h). Moreover, the IC50 in experiment [3] was greater than 100 µM; in experiment [4], 7.78 µM.
With `Nc1ncnc2c1ncn2[C@@H]1C[C@@H]2COP(=O)(S)O[C@@H]3[C@H](F)[C@@H](COP(=O)(S)OC[C@H]21)O[C@H]3n1cnc2c(=O)n3cc[nH]c3nc21` (single isomer, unassigned) [Example 6-1], the concentration for a half-maximal effect (EC50) in experiment [1] (20 hours) and in experiment [2] (20 hours) was greater than 100 µM each time. Besides, the IC50 in experiment [3] came out at 6.31 µM; in experiment [4] it was 0.18 µM.
As for `Nc1ncnc2c1ncn2[C@@H]1C[C@@H]2COP(=O)(S)O[C@H]3[C@@H](F)[C@H](n4cnc5c4ncn4ccnc54)O[C@@H]3COP(=O)(S)OC[C@H]21` (single isomer, unassigned) [Example 17-2], the EC50 in experiment [1] (20 hours) and in experiment [2] (20 hours) was greater than 100 µM throughout. Besides, the IC50 in experiment [3] amounted to 39 µM; in experiment [4], 0.46 µM.
As for `Nc1ncnc2c1ncn2[C@@H]1C[C@@H]2COP(=O)(O)O[C@H]3[C@@H](F)[C@H](n4cnc5c4ncn4ccnc54)O[C@@H]3COP(=O)(O)OC[C@H]21` [Example 16, (1R,6S,8R,9R,15R,17R,18R)-8-(6-amino-9H-purin-9-yl)-18-fluoro-3,12-dihydroxy-17-{3H-imidazo[2,1-f]purin-3-yl}-2,4,11,13,16-pentaoxa-3λ^5,12λ^5-diphosphatricyclo[13.3.0.0^6,9]octa-decane-3,12-dione], the half-maximal effective concentration (EC50) in experiment [1] (Homo sapiens, THP1-Dual, 20 h) is 23.9 µM; in experiment [2] (Homo sapiens, THP1-Dual, 20 h), 72.8 µM. In addition, the IC50 in experiment [3] was determined as 4.66 µM; in experiment [4], 0.02 µM.
